# Laboratory results as given in US20250186379A1, “METHODS AND AGENTS FOR DECREASING INSULIN RESISTANCE” (Whitehead Institute for Biomedical Research, priority 2021, published 2025).
# Key:
# [1] = system: IR-FKBP condensates; test: tc-PALM of IR-Dendra2-FKBP condensate lifetime in HepG2 cells; type: cell-based, human; details: HepG2 cells expressing IR-FKBP; 5 μM AP1903 16 hours vs DMSO
# Text: A CRISPR/Cas9 system was used to generate genetically modified HepG2 cell lines. Target sequences were cloned into a plasmid containing sgRNA backbone, a codon-optimized version of Cas9 and mCherry. For IR targeting, two Cas9 gRNAs were used. For the generation of the IR-mEGFP, IR-Dendra2, and IR-Dendra2-FKBP endogenously tagged lines, homology directed repair templates were cloned into pUC19 using NEBuilder HiFi DNA Assembly Master Mix (NEB, E2621S). For IR-mEGFP and IR-Dendra2 cell lines, the homology repair template consisted of mEGFP or Dendra2 cDNA sequence flanked on either side by 800 bp homology arms amplified from HepG2 genomic DNA using PCR (FIG. 27A). […]
# Widefield, live-cell, super-resolution imaging was performed in a photo-activation localization microscopy (PALM) approach using a Nikon Eclipse Ti microscope with a 100× oil immersion objective. […] During each imaging cycle, a 2400-frame video stream including a (256 pixel)^2 region of interest (ROI) was recorded in 20 Hz acquisition rate with the EM-gain setting as 1000 on an Andor iXon Ultra 897 EMCCD. […]
# Temporal clustering: For each spatial cluster, time-correlated PALM (tc-PALM) analysis was performed along the time axis to extract the truly colocalized, time-correlated multi-molecule bursting events. […] More details about the quantitative validations and statistics of tc-PALM analysis can be found in FIG. 30.
# [2] = system: IR-FKBP; test: Western blotting and imaging of IR activity in HepG2 cells expressing IR-GFP-FKBP; type: cell-based, human; details: 5 μM AP1903 16 hours vs DMSO
# Text: For experiments that forced reduction in IR condensate dynamics, the vector used in this assay was modified from pJH135_pb_MCPx2_mCherry_rTTA vector^11. IR-mEGFP-FKBP, which consists of the insulin receptor cDNA, flexible linker 1, mEGFP, flexible linker 2, and four copies of FKBP, was cloned into PmeI and NheI digested pJH135_pb_MCPx2_mCherry_rTTA using Gibson cloning by following the manufacturer's instructions (NEB, E2621S). This vector is called JP204 pb_TetON_INSR_2A_GFP_Dmbr4.
# For experiments that forced reduction in IR condensate dynamics, 1×10^5 cells/cm^2 HepG2 cells were transfected with 0.07 μg/cm^2 pJP204_pb_TetON_INSR_2A_GFP_Dmbr4 using Lipofectamine 3000 (Invitrogen, L3000). On day 2, the cells were treated with 100 ng/ml doxycycline (Sigma, D9891-5G). […]
# Cells were washed with ice-cold PBS (Life Technologies, AM9625) and lysed in Cell Lytic M (Sigma Aldrich C2978) supplemented with protease and phosphatase inhibitors (Sigma Aldrich, 11873580001 and 4906837001) directly on the wells. […] Super natant was collected and protein concentration was determined using a BCA Protein Assay Kit (Life Technologies, 23250) according to the manufacturer's instructions. […] Immunoblot quantification was performed using the “analyze gel” tool on Fiji/ImageJ v2.1.0/153c.
# To quantify pIRS1 fluorescent signal in IR puncta/condensates manually, Airyscan images were opened on Fiji as composite images. […]
structure (smiles),measurement,setting,value
CC[C@H](C(=O)N1CCCC[C@H]1C(=O)O[C@H](CCc1ccc(OC)c(OC)c1)c1cccc(OCC(=O)NCCNC(=O)COc2cccc([C@@H](CCc3ccc(OC)c(OC)c3)OC(=O)[C@@H]3CCCCN3C(=O)[C@@H](CC)c3cc(OC)c(OC)c(OC)c3)c2)c1)c1cc(OC)c(OC)c(OC)c1 [AP1903],lifetime of IR condensates,[1],significantly increased the lifetime of IR condensates
same,"IR functional activity (pIR-FKBP, pIRS1)",[2],less functionally active
